Records with an inconclusive call do not appear. The source made the active and inactive calls. How the calls were made is not given here. Where only a bound is given, the exact number is not on record here.

Test [1] has as its system HEK293 viability counterscreen, plate reader. Kind of test: cytotoxicity in HEK293 background cells – cell-based, dry powder, set 2, counter-screen for EBV LMP1 inhibitor project, dose response (AID 624374). On the technique in general: A counterscreen serves to expose hits that act by an unwanted route or on another target.
Test in test [2]: as above
To be noted: HEK293 viability counterscreen, plate reader.

In the case of `CC(C)(C)[S@@](=O)N1Cc2cc(C(=O)NCc3ccccc3F)nc(-c3cccc(-c4ccncc4)c3)c2[C@H]1CCO`, in test [1], the AC35 was > 35 µM (inactive). Take `O=C(C[C@@H]1C[C@@H]2c3cc(NS(=O)(=O)c4ccc(F)cc4)ccc3O[C@@H]2[C@@H](CO)O1)NCc1ccc(Oc2ccccc2)cc1`: in test [1], the AC35 was 20.8 µM. For `O=C(C[C@@H]1C[C@@H]2c3cc(NC(=O)c4ccc5c(c4)OCO5)ccc3O[C@@H]2[C@@H](CO)O1)NCc1ccc(Oc2ccccc2)cc1`, in test [1], the AC35 is 33.8 µM. The same measure, in the same setting: in the case of `COc1ccccc1CNC(=O)C[C@@H]1C[C@H]2c3cc(NC(=O)c4ccc5c(c4)OCO5)ccc3O[C@H]2[C@H](CO)O1` it was > 35 µM (inactive); in that of `C[C@H](CO)N1C[C@H](C)[C@@H](CN(C)Cc2ccc(C(F)(F)F)cc2)Oc2ccc(NC(=O)Cc3ccccc3)cc2CC1=O`, > 35 µM (inactive).

`Cc1cc(C(=O)Nc2ccc3c(c2)C(=O)N(C)[C@@H]2CC[C@@H](CC(=O)NCc4ccc(-c5ccccc5)cc4)O[C@H]2CO3)no1`: the AC35 in test [1] was > 35 µM (inactive).

For the compound `C[C@H](NC(=O)C[C@@H]1C=C[C@H](NC(=O)Cc2ccccn2)[C@H](CO)O1)c1ccccc1`, the activity change, negative = viability loss in test [2] (at 30 µM (top of the series)) is 3.96% (inactive). Consider `C[C@@H]1CN([C@H](C)CO)S(=O)(=O)c2ccc(C#C[C@@H](C)O)cc2O[C@H]1CN(C)Cc1ccc(-c2ccccc2)cc1`, for which, in test [2] (at 35 µM (top of the series)), the activity change, negative = viability loss is -18.7% (inactive). Turning to `CN(C)C(=O)c1cccc(-c2cccc(-c3nc(C(=O)NCc4ccccc4)cc4c3[C@@H](CCO)N([S@](=O)C(C)(C)C)C4)c2)c1`, the activity change, negative = viability loss in test [2] (at 30 µM (top of the series)) was -12.3% (inactive). `C[C@@H]1CN([C@H](C)CO)C(=O)c2c(c3ccccc3n2C)-c2ccccc2CO[C@@H]1CN(C)C(=O)Nc1ccc(F)cc1`: in test [2] (at 35 µM (top of the series)), the activity change, negative = viability loss was 6.88% (inactive).

As to `C[C@H](NC(=O)C[C@H]1C=C[C@@H](NC(=O)Cc2ccccn2)[C@@H](CO)O1)c1ccccc1`, the activity change, negative = viability loss in test [2] (at 35 µM (top of the series)) was -1.38% (inactive). Regarding `COc1ccccc1C#Cc1ccc2c(c1)O[C@H](CN(C)Cc1cccnc1)[C@H](C)CN([C@H](C)CO)S2(=O)=O`, the activity change, negative = viability loss in test [2] (at 35 µM (top of the series)) was 4.43% (inactive). `O=C(C[C@H]1C[C@@H]2c3cc(NS(=O)(=O)c4ccc(F)cc4)ccc3O[C@@H]2[C@@H](CO)O1)NCc1ccc(Oc2ccccc2)cc1`: the AC35 in test [1] was 23.1 µM.

For the compound `Cc1ccc(S(=O)(=O)N(C)C[C@H]2Oc3cc(C#Cc4ccncc4)ccc3S(=O)(=O)N([C@@H](C)CO)C[C@@H]2C)cc1`, in test [1], the AC35 was > 35 µM (inactive). As to `C/C=C/c1cccc(-c2nc(C(=O)Nc3nccs3)cc3c2[C@@H](CCO)N(C(=O)NC(C)C)C3)c1`, in test [2] (at 35 µM (top of the series)), the activity change, negative = viability loss was 4.5% (inactive). Take `Cc1noc(C)c1S(=O)(=O)Nc1ccc2c(c1)C(=O)N([C@@H](C)CO)C[C@H](C)[C@@H](CN(C)Cc1ccc(C(F)(F)F)cc1)OCCCC[C@H](C)O2`: in test [2] (at 35 µM (top of the series)), the activity change, negative = viability loss was 4.59% (inactive).

In the case of `O=C(C[C@@H]1CC[C@H]2[C@@H](COC[C@H](O)CN2Cc2ccc(Oc3ccccc3)cc2)O1)N1CCc2ccccc2C1`, in test [2] (at 35 µM (top of the series)), the activity change, negative = viability loss is -2.75% (inactive). As to `O=C(C[C@H]1C[C@@H]2c3cc(NS(=O)(=O)c4ccc(F)cc4)ccc3O[C@@H]2[C@H](CO)O1)NC1CCCCC1`, in test [2] (at 35 µM (top of the series)), the activity change, negative = viability loss was 2.73% (inactive). Same read-out and setting: in the case of `COc1ccccc1C#Cc1cnc2c(c1)C(=O)N([C@H](C)CO)C[C@H](C)[C@@H](CN(C)C(=O)c1ccc3c(c1)OCO3)O2` it was 7.12% (inactive); in that of `C[C@H]1CN([C@@H](C)CO)C(=O)Cc2cc(NC(=O)Cc3ccccc3)ccc2O[C@@H]1CN(C)Cc1ccc(C(F)(F)F)cc1`, 12.4% (inactive); in that of `O=C(C[C@H]1C[C@H]2c3cc(NC(=O)c4ccc5c(c4)OCO5)ccc3O[C@H]2[C@H](CO)O1)NCc1ccc(Oc2ccccc2)cc1`, -11.7% (inactive). Same read-out and setting: in the case of `COc1cccc(S(=O)(=O)N(C)C[C@H]2Oc3cc(C4=CCCCC4)ccc3S(=O)(=O)N([C@H](C)CO)C[C@H]2C)c1` it was -4.57% (inactive); in that of `CN(C)c1ccc2c(c1)[C@@H]1C[C@@H](CC(=O)NCc3ccc(Oc4ccccc4)cc3)O[C@H](CO)[C@@H]1O2`, -4.49% (inactive).

Values taken from PubChem BioAssay AID624374 (Broad Institute, 2012).
